Experimental data: publication PMC12006031, “Inhibitory Effect of Whey Protein‐Derived Peptide Leu‐Asp‐Gln‐Trp on Xanthine Oxidase” (Food Science & Nutrition, 2025)
Where two headings read alike, the source gives them in different places. Residues, ends and D or L forms follow the SMILES beside them. No end group written: not given here.

Key:
XO from bovine milk [1] = molecular target: T1, XO from bovine milk (Bos taurus, UniProt P80457); assay: XO inhibitory activity by LC-MS/MS quantification of uric acid; assay type: biochemical; conditions: for XO inhibitory activity (inhibition ratio): 20 mM, UA by LC-MS/MS (PRM m/z 169.03/70.04) after 30 min, XO 25 U/L, xanthine 0.42 mM, 0.1 M phosphate buffer pH 7.2 containing 0.1 M sodium chloride, mean ± SD; for XO inhibitory activity (inhibition ratio) / Concentration with significant XO inhibition / Significance of XO inhibition at any concentration: n = 3; for Concentration dependence of XO inhibition: Figure 5 or Figure 6; for Concentration with significant XO inhibition: vs. control, Figure 5; for Concentration with significant XO inhibition / Significance of XO inhibition at any concentration: one-way ANOVA, Tukey-Kramer; for Significance of XO inhibition at any concentration: tryptophan Figure 5, leucine Figure 6
T1 construct: XO from bovine milk and xanthine were purchased from Sigma‐Aldrich Corp. (MO, USA); purchased Sigma‐Aldrich Corp. (MO, USA); host or cells: bovine milk (natural source)
Description: (§1) Tryptophan and leucine were obtained from Kanto Chemical Co. Ltd. (Tokyo, Japan). The evaluation samples such as peptides and amino acids, and allopurinol (FUJIFILM Wako Pure Chemical Corp., Tokyo, Japan) as a positive control for the evaluation method, were suspended in 0.1 M phosphate buffer pH 7.2 (FUJIFILM Wako Pure Chemical Corp., Tokyo, Japan) containing 0.1 M sodium chloride. The samples were obtained for the assay after sonication for 10 min. XO from bovine milk and xanthine were purchased from Sigma‐Aldrich Corp. (MO, USA). […] The xanthine solution was prepared by diluting it with buffer at a ratio of 1:10.
(§2) Briefly, the samples (e.g., LDQW) or allopurinol were mixed with the XO solution (final concentration: 25 U/L). A mixture added to the buffer instead of the sample was analyzed as a control. […] The sample, XO solution, and xanthine solution were reacted in a 2:1:1 ratio. The assay was performed in triplicate. The XO inhibitory activity was calculated using the following equation: XOinhibitory activity%=1−AbS30min−AbS0min/AbC30min−AbC0min×100
2.3 Determination of XO Inhibitory Activity Using LC–MS/MS
To halt the enzymatic reaction, an equal volume of 1 M HCl, purchased from Kanto Chemical Co. Ltd. (Tokyo, Japan), was promptly added to the mixture after the absorbance was monitored for 30 min (Figure 1A). The mixture was then diluted 50‐fold with water containing 0.2% (v/v) formic acid (FA), which was purchased from Kanto Chemical Co. Ltd. (Tokyo, Japan), to prepare analytical samples for LC–MS/MS. UA in the analytical samples was measured using a Vanquish Ultra‐High‐Performance LC system coupled with a Vanquish variable wavelength detector VF‐D40 and a Q Exactive Focus (Thermo Fisher Scientific Inc., MA, USA). UA in the analytical samples was separated using an XBridge Peptide BEH C18 Column (2.1 mm i.d. × 250 mm, 3.5 μm, Waters Inc., MA, USA).
UA separation was achieved using 0.1% (v/v) FA in water (solvent A) and 0.1% FA in methanol (solvent B, Kanto Chemical Co. Ltd., Tokyo, Japan) with the following gradient over 22 min: 2% B for 5 min, increased from 2% to 10% B over 3 min, from 10% to 80% B over 2 min, held at 80% B for 2 min, decreased from 80% to 2% B over 0.1 min and held at 2% B for 10 min. The column temperature and flow rate were maintained at 40°C and 0.2 mL/min, respectively. During separation, the absorbance was monitored at 290 nm.
MS detection was performed in positive ion mode. […] The peak area detected at a retention time of 4.3 min was analyzed using Thermo Scientific Xcalibur. UA was quantified using the absolute calibration curve method, which was constructed from the peak areas of UA at various concentrations. XO inhibitory activity was calculated as [1 − UAs/UAc] × 100%, where UAs and UAc represent the amount of UA in the samples and control, respectively.
(§3) All experiments were performed in triplicate, with data indicated as mean ± standard deviation (SD). […] One‐way analysis of variance (ANOVA) was used for parametric analyses, followed by the Tukey–Kramer test. p values of < 0.05 were considered statistically significant.

XO from bovine milk [2] = molecular target: T1, XO from bovine milk; assay: XO inhibitory activity by absorptiometry (absorbance at 290 nm, microplate reader); assay type: biochemical; conditions: for Suppression of the absorbance increase / enzymatic reaction compared with control (relative absorbance): 290 nm every 5 min for 30 min, Figure 2; for Concentration dependence of XO inhibitory activity / Concentration with significant XO inhibition: absorptiometry; for Concentration with significant XO inhibition: vs. control, p < 0.01, one-way ANOVA, Tukey-Kramer
Description: as §1
2.2 Enzymatic Reaction and Monitoring of Absorbance Using a Microplate Reader
as §2
AbS30min : Absorbance of the sample at 30 min.
AbS0min : Absorbance of the sample at 0 min.
AbC30min : Absorbance of the control at 30 min.
AbC0min : Absorbance of the control at 0 min.
as §3

xanthine oxidase (XO) = conditions: cited from earlier work; for IC50: literature value, ref He et al. [2019], Mao et al. [2023], Xu, Liu, et al. [2024], read-out: IC50 (XO inhibition)
[3] = test system: rat model of hyperuricemia; conditions: orally administered, ref He et al. [2024], Qi et al. [2022a]; cited from earlier work
Source text: There have been numerous reports on bioactive peptides with XO inhibitory activity.

[4] = test system: rat model of hyperuricemia; conditions: ref Qi et al. [2023], [2024]; cited from earlier work
Source text: As study limitations, the mechanism for alleviating hyperuricemia is known to involve not only XO activity inhibition but also other factors, such as UA excretion promotion and UA reabsorption inhibition (Cicero et al. [2021]).

[5] = experiment of Figure 6 (DQW fragment)
[6] = 20 mM, absorbance at 290 nm, 0-30 min, XO 25 U/L, xanthine 0.42 mM, 0.1 M phosphate buffer pH 7.2 containing 0.1 M sodium chloride, mean ± SD, n = 3, Figure 3
[7] = 1-20 mM tested, n = 3, Figure 3

T1 sequence (P80457 whole entry): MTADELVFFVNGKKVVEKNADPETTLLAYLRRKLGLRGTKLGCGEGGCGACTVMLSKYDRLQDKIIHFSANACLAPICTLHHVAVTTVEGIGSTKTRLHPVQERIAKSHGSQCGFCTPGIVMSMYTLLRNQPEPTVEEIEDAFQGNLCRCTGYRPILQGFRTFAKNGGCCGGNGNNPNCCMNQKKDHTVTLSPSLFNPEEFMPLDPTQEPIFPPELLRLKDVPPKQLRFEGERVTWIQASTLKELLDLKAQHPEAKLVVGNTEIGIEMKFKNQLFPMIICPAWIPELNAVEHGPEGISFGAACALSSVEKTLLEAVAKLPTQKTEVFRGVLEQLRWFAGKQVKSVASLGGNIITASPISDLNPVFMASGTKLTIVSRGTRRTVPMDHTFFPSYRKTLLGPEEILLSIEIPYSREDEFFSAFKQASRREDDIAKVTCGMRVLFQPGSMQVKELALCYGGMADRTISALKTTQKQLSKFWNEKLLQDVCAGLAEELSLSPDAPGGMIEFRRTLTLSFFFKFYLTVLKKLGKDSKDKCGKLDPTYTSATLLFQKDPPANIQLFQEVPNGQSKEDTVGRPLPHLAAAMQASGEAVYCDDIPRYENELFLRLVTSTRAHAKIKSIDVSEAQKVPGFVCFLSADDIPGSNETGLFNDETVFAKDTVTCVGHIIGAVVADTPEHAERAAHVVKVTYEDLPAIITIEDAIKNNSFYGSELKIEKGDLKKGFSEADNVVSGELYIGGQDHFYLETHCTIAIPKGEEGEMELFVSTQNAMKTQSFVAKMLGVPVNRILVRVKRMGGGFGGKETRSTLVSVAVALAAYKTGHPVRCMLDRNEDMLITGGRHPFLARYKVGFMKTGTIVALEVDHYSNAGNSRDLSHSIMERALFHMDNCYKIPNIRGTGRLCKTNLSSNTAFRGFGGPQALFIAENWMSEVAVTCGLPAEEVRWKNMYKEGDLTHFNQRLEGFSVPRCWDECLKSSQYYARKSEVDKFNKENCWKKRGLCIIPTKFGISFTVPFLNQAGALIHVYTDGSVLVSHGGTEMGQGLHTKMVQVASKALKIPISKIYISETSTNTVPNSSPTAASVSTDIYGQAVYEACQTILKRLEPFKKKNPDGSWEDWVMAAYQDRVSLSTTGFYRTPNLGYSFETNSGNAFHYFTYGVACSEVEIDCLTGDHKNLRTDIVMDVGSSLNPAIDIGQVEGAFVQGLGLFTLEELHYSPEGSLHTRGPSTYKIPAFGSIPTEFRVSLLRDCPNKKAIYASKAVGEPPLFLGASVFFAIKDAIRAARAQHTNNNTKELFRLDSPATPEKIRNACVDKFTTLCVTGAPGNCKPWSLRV

Compound: CC(C)C[C@H](N)C(=O)N[C@@H](CC(=O)O)C(=O)N[C@@H](CCC(N)=O)C(=O)N[C@@H](Cc1c[nH]c2ccccc12)C(=O)O [LDQW, Leu‐Asp‐Gln‐Trp] (H-LDQW-OH)
- XO inhibitory activity (inhibition ratio) (XO from bovine milk [1]; experiment of Figure 5): 58.0% ± 2.8
- XO inhibitory activity (inhibition ratio) (XO from bovine milk [1]; [5]): 57.9% ± 3.2
- inhibition at 20000 µM (XO from bovine milk [2]; [6]): 96.4%

Compound: Oc1ncnc2[nH]ncc12 [allopurinol]
- XO inhibition reported earlier (xanthine oxidase (XO); ref Klein et al. [1996]): reported to have XO inhibitory activity
- Concentration dependence of XO inhibition (XO from bovine milk [1]; LC-MS/MS): significantly inhibited XO activity in a concentration‐dependent manner
- Concentration with significant XO inhibition (XO from bovine milk [1]; allopurinol positive control, LC-MS/MS): ≥ 1 µM
- Suppression of the absorbance increase / enzymatic reaction compared with control (relative absorbance) (XO from bovine milk [2]; n = 3): suppressed the increase in absorbance in a concentration‐dependent manner
- Concentration dependence of XO inhibitory activity (XO from bovine milk [2]; Figure 3): increased with rising concentrations in a concentration‐dependent manner
- Concentration with significant XO inhibition (XO from bovine milk [2]; allopurinol positive control, 1-50 μM tested, n = 3, Figure 3): ≥ 0.001 mM

Compound: CC(C)C[C@H](N)C(=O)O [leucine]
- Significance of XO inhibition at any concentration (XO from bovine milk [1]; LC-MS/MS): no significant XO inhibition was observed

Compound: N[C@@H](Cc1c[nH]c2ccccc12)C(=O)O [tryptophan]
- XO inhibitory activity (inhibition ratio) (XO from bovine milk [1]; experiment of Figure 5): 4.4% ± 3.7
- Significance of XO inhibition at any concentration (XO from bovine milk [1]; LC-MS/MS): did not exhibit significant XO inhibition at any concentration
- inhibition at 20000 µM (XO from bovine milk [2]; [6]): 95.2%
- Suppression of the absorbance increase / enzymatic reaction compared with control (relative absorbance) (XO from bovine milk [2]; n = 3): the enzymatic reaction by XO was suppressed compared with the control
- Concentration dependence of XO inhibitory activity (XO from bovine milk [2]; Figure 3): increased with rising concentrations in a concentration‐dependent manner
- Concentration with significant XO inhibition (XO from bovine milk [2]; [7]): ≥ 1 mM

Compound: Ala‐Leu
- IC50 (xanthine oxidase (XO)): 34.5 mM

Compound: Ala‐Leu‐Pro‐Met [ALPM, milk protein-derived peptide used for comparison]
- XO inhibition reported earlier (xanthine oxidase (XO); ref Qi et al. [2022a], [2022b]): inhibit XO
- XO inhibitory activity (inhibition ratio) (XO from bovine milk [1]; experiment of Figure 5): 45.0% ± 1.0
- Concentration dependence of XO inhibition (XO from bovine milk [1]; LC-MS/MS): increase in the inhibition ratio in a concentration‐dependent manner
- Concentration with significant XO inhibition (XO from bovine milk [1]; LC-MS/MS): ≥ 5000 µM
- Renal dysfunction [3]: improve renal dysfunction
- Serum uric acid (SUA) levels [3]: reduce SUA levels
- XO inhibitory activity (XO from bovine milk [2]; [6]): 25.2% ± 1.9
- Suppression of the absorbance increase / enzymatic reaction compared with control (relative absorbance) (XO from bovine milk [2]; n = 3): suppressed this increase compared with the control
- Concentration with significant XO inhibition (XO from bovine milk [2]; [7]): 20 mM

Compound: Ala‐Met
- IC50 (xanthine oxidase (XO)): 40.5 mM

Compound: Asp‐Gln‐Trp [DQW]
- XO inhibitory activity (inhibition ratio) (XO from bovine milk [1]; [5]): 48.4% ± 8.5
- XO inhibitory activity in comparison with another peptide (XO from bovine milk [1]; LC-MS/MS): comparable to that of LDQW
- Concentration dependence of XO inhibition (XO from bovine milk [1]; LC-MS/MS): significantly inhibited XO activity in a concentration‐dependent manner

Compound: Gly‐Leu
- IC50 (xanthine oxidase (XO)): 10.2 mM

Compound: Leu‐Leu‐Trp [LLW]
- Expression of genes related to UA synthesis in the liver [4]: reduce the expression of genes related to UA synthesis in the liver
- Gene expression for UA excretion in the kidneys [4]: enhance gene expression for UA excretion in the kidneys
- XO inhibition reported earlier (xanthine oxidase (XO); ref Qi et al. [2023], [2024]): known for their XO inhibitory activities

Compound: Phe‐His
- IC50 (xanthine oxidase (XO)): 25.7 mM

Compound: Pro‐Glu‐Trp [PEW, peptide derived from milk proteins]
- Expression of genes related to UA synthesis in the liver [4]: reduce the expression of genes related to UA synthesis in the liver
- Gene expression for UA excretion in the kidneys [4]: enhance gene expression for UA excretion in the kidneys
- XO inhibition reported earlier (xanthine oxidase (XO); ref Qi et al. [2022a], [2022b]): inhibit XO
- XO inhibition reported earlier (xanthine oxidase (XO); ref Qi et al. [2023], [2024]): known for their XO inhibitory activities

Compound: Pro‐Met
- IC50 (xanthine oxidase (XO)): 23.8 mM

Compound: YNITGW
- IC50 (xanthine oxidase (XO)): 9.8 mM
